Key:
Carbonic anhydrase 4 = target: T1, Carbonic anhydrase 4 (Bos taurus, UniProt Q95323)
T1 sequence (Q95323 whole entry): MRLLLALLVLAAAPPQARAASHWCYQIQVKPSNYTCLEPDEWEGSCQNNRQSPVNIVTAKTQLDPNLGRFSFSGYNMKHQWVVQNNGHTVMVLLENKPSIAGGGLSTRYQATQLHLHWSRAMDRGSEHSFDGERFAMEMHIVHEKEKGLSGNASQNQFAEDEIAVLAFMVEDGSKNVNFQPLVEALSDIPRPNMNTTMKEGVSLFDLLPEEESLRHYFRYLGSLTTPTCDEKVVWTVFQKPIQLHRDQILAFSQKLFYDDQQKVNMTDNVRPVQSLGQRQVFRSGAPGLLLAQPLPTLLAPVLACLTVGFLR

Carbonic anhydrase 2 = Carbonic anhydrase 2 (Homo sapiens, UniProt P00918)
Carbonic anhydrase 1 = Carbonic anhydrase 1 (Homo sapiens, UniProt P00915)
Sequence of Carbonic anhydrase 1 (P00915 whole entry): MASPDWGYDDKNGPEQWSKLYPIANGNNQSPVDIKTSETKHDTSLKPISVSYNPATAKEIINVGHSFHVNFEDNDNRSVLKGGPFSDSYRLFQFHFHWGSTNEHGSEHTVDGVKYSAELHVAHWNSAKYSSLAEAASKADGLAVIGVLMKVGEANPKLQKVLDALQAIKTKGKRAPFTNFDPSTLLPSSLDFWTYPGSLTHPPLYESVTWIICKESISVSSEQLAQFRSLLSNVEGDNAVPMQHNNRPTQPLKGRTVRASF

| Ki (Carbonic anhydrase 4) [µM] | Ki (Carbonic anhydrase 2) [µM] | Ki (Carbonic anhydrase 1) [µM] | Compound |
| --- | --- | --- | --- |
| 0.045 | – | – | CCN[C@H]1CC(CCCOC)S(=O)(=O)c2sc(S(N)(=O)=O)cc21 (stereo not given in full) |
| 0.004 | 0.002 | – | CC(=O)Nc1ccc(S(=O)(=O)Nc2nnc(S(N)(=O)=O)s2)cc1Br |
| 2.55 | – | – | CC(C)(C)C(=O)Nc1ccc(S(N)(=O)=O)cc1 |
| 0.004 | 0.001 | 0.005 | CC(=O)Nc1ccc(S(=O)(=O)Nc2nnc(S(N)(=O)=O)s2)cc1Cl |
| 0.185 | – | 0.645 | CC(C)(C)C(=O)Nc1nnc(S(N)(=O)=O)s1 |
| 0.022 | 0.01 | 0.031 | NS(=O)(=O)c1ccc(NS(=O)(=O)c2ccc([N+](=O)[O-])cc2)cc1 |
| 0.085 | – | – | NS(=O)(=O)c1ccc(NS(=O)(=O)c2ccccc2)cc1 |
| 0.015 | 0.009 | 0.04 | NS(=O)(=O)c1ccc(NS(=O)(=O)c2ccc(F)cc2)cc1 |
| – | – | 0.074 | NS(=O)(=O)c1ccc(NC(=O)c2cc3ccccc3oc2=O)cc1 |
| 0.02 | 0.013 | 0.012 | NS(=O)(=O)c1ccc(CCNC(=O)Nc2ccc(Cl)c(Cl)c2)cc1 |
| 2.63 | – | – | CCC(=O)Nc1ccc(S(N)(=O)=O)cc1 |
| 0.14 | – | 0.8 | NS(=O)(=O)c1ccc(CNC(=O)Nc2ccccc2)cc1 |
| 0.174 | 0.017 | 0.85 | Cn1nc(S(N)(=O)=O)s/c1=N/C(=O)c1ccccc1 |
| 0.6 | – | 0.95 | NS(=O)(=O)c1ccc(NC(=O)CCCCC(F)(F)C(F)(F)F)cc1 |
| 0.008 | 0.003 | – | CC(=O)Nc1ccc(S(=O)(=O)Nc2nnc(S(N)(=O)=O)s2)cc1 |
| 2.37 | – | – | CCCCC(=O)Nc1ccc(S(N)(=O)=O)cc1 |
| 2.85 | 0.246 | 21.4 | CC(=O)Nc1ccc(S(N)(=O)=O)cc1 |

The next lines start with the molecule.

| Compound | Ki (Carbonic anhydrase 4) [µM] | Ki (Carbonic anhydrase 2) [µM] | Ki (Carbonic anhydrase 1) [µM] |
| --- | --- | --- | --- |
| CCCCCC(=O)Nc1ccc(S(N)(=O)=O)cc1 | 0.98 | 0.063 | 14.2 |
| NS(=O)(=O)c1ccc(CCNC(=O)c2cc3ccccc3oc2=O)cc1 | – | – | 0.066 |
| NS(=O)(=O)c1ccc(CNS(=O)(=O)c2ccccc2)cc1 | 0.064 | – | – |
| CC(=O)Nc1ccc(S(=O)(=O)NCCc2ccc(S(N)(=O)=O)cc2)cc1 | 0.119 | 0.075 | 0.187 |
| CC(C)C(=O)Nc1ccc(S(N)(=O)=O)cc1 | 2.84 | – | – |
| NS(=O)(=O)c1ccc(NC(=O)c2ccccc2)cc1 | 0.176 | – | – |
| CCCC(=O)Nc1ccc(S(N)(=O)=O)cc1 | 2.54 | – | – |
| NS(=O)(=O)c1ccc(CCNS(=O)(=O)c2ccccc2)cc1 | 0.039 | 0.028 | 0.069 |
| NS(=O)(=O)c1ccc(CNC(=O)c2cc3ccccc3oc2=O)cc1 | – | – | 0.069 |
| NS(=O)(=O)c1ccc(/N=C\c2ncc[nH]2)cc1 | 0.13 | 0.12 | 1 |
| Cn1nc(S(N)(=O)=O)s/c1=N/C(=O)CCCCC(F)(F)C(F)(F)F | 0.008 | – | 0.27 |
| CC(=O)Nc1ccc(S(=O)(=O)Nc2nnc(S(N)(=O)=O)s2)cc1F | – | 0.001 | 0.006 |
| NS(=O)(=O)c1nnc(NC(=O)c2ccccc2)s1 | 0.163 | – | 0.9 |
| Cn1nc(S(N)(=O)=O)s/c1=N/C(=O)c1ccco1 | 0.03 | 0.006 | 0.29 |
| NS(=O)(=O)c1nnc(NC(=O)CCCCC(F)(F)C(F)(F)F)s1 | 0.01 | 0.002 | 0.25 |
| NS(=O)(=O)c1ccc(NC(=O)C(F)(F)F)cc1 | 2.1 | – | – |

From ChEMBL document CHEMBL1149322, “Carbonic anhydrase inhibitors. Inhibition of mitochondrial isozyme V with aromatic and heterocyclic sulfonamides” (J Med Chem, 2004)
